According to patent publication US20080014253A1, “Lipid-Based Drug Delivery Systems Containing Unnatural Phospholipase A2 Degradable Lipid Derivatives and the Therapeutic Uses Thereof” (priority 2004, published 2008):
Entries after “also recorded” stand apart in the source; their conditions may differ.

What was measured:
[1] = type: physicochemical; conditions: for Main-transition Tm (peak position) / Pre-transition Tm (peak position): multilamellar liposomes, scan rate 20° C./h; for pre-transition of the lipid membrane (Cp-curves): one-component multilamellar liposomes
Protocol: FIG. 3. Heat capacity, CP, obtained using differential scanning calorimetry at a scan rate of 20° C./h for 0.15 mM multilamellar liposomes: (A) 1-O-DPPC′ (left), DPPC (middle), and 1-O-DPPC (right). (B) 1-O-DPPG′ (left), DPPG (middle) and 1-O-DPPG (right).
By replacing the ester linkage in the C-1 position with an ether bond, these unnatural phospholipids can furthermore be used as novel prodrug anticancer lipids to make liposomal microcarriers that can be degraded to active anticancer lysoetherlipids by PLA2 [27]. The lipid prodrug analogs (1-O-DPPC and 1-O-DPPG) were synthesized as described earlier. 1,2-dipalmitoyl-sn-glycero-3-phosphocholine (DPPC), 1,2-dipalmitoyl-sn-glycero-3-phosphoglycerol (DPPG), and 1,2-distearoyl-sn-glycero-3-phosphoethanolamine poly(ethylene glycol)2000 (DSPE-PEG2000) were purchased from Avanti Polar Lipids, AL, USA. Multi- and unilamellar liposomes were hydrated in a HEPES buffer solution (10 mM HEPES, 110 mM KCl, 1 mM NaN3, 30 μM CaCl2, 10 μM NaEDTA, pH 7.5) and prepared as described in previous work. Differential scanning calorimetry was carried out in the upscan mode at a scanrate of 20° C./h using multilamellar liposomes. The PLA2 lag time measurements on 1-O-DPPC′ unilamellar liposomes incorporated with small amounts of 1-O-DPPG′ or DSPE-PEG2000 lipids were performed in the gel-to-fluid main phase transition range and the degree of lipid hydrolysis was analyzed using HPLC techniques.
The heat capacity (Cp) curves obtained using differential scanning calorimetry are shown in FIG. 3 for one-component 1-O-DPPC′ and 1-O-DPPG′ multilamellar liposomes. The Cp-curves show a main peak at 40.1° C. and 40.6° C. reflecting the chain disordering gel-to-fluid main phase transition of the 1-O-DPPC′ and 1-O-DPPG′ lipid membranes, respectively. […] This leads to the formation of low temperature ordered and non-corrugated gel phase (Lβ) that prevails until the unset of the main transition giving rise to a concomitant increase in the integrated melting enthalpy of the main transition (Table 1). Since the 1-O-DPPC′ and 1-O-DPPG′ lipids undergo a transition from an ordered configuration in the low temperature non-corrugated gel phase to a disordered configuration in the high temperature fluid phase without passing through the ripple phase, the integrated melting enthalpy is expected to be higher than for the natural DPPC and DPPG ripple phase forming lipids, which undergo a transition to the fluid phase from a ripple phase with a higher energy than the non-corrugated gel phase. In order to exclude the possibility that the abolished ripple transition is due to having an ether bond in the C-1 position, we have in FIG. 3 also shown Cp-curves obtained on 1-O-DPPC and 1-O-DPPG multilamellar liposomes. Clearly, these Cp-curves show the same characteristic phase behavior as the natural DPPC and DPPG lipids with a pre-transition a few degrees below the main phase transition peak underlining that it is the position of the phosphate head group in the C-3 position on the natural phospholipids that is crucial for ripple formation.

[2] = target: T1, human secretory PLA2 (Homo sapiens, UniProt P14555); assay: Hydrolysis of unilamellar liposomes by human secretory PLA2 from human tear fluid; type: biochemical
T1 construct: from tissue; host or cells: freshly prepared human tear fluid
T1 sequence (P14555 21-144): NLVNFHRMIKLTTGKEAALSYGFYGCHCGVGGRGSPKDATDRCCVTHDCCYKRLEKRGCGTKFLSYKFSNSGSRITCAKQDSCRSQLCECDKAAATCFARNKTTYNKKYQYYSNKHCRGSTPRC
Protocol: FIG. 4. Characteristic reaction time profiles at 40° C. for PLA2 hydrolysis of unilamellar. (A) 0.15 mM 1-O-DPPC′ liposomes incubated with 150 nM PLA2 (A. piscivorus piscivorus). (B) 0.15 mM 1-O-DPPG′ liposomes incubated with human secretory PLA2 from 20 μL freshly prepared human tear fluid (B). The PLA2 hydrolysis reaction is monitored by intrinsic fluorescence (solid line) from the enzyme and 90° static light scattering (dashed lines) from the lipid suspension. After adding PLA2 to the equilibrated liposome suspension a characteristic lag time, τ, follows before a sudden increase in the catalytic activity takes place (A).
FIG. 6. (A) PLA2 (A. piscivorus piscivorus) hydrolysis of 1-O-DPPC′ liposomes containing 0 mol % (▪), 2 mol % (▴), and 10 mol % (∘) 1-O-DPPG′ lipids, and 5 mol % (▾) DSPE-PEG2000 polymer lipids determined by HPLC [28]. The percent lipid hydrolysis is determined 1000 s after the unset of the burst. The concentration of the liposomes was 0.15 mM and the concentration of PLA2 was 150 nM. (B) Hydrolysis of 1-O-DPPG′ unilamellar liposomes determined by HPLC [28]. The PLA2 catalyzed lipid hydrolysis is determined as a function of time after addition of 20 μL freshly prepared human tear fluid to 0.15 mM 1-O-DPPG′ liposomes. […]

Main-transition ΔHm (melting enthalpy) [1]	Pre-transition ΔH (melting enthalpy) [1]	Main-transition Tm (peak position) [1]	Pre-transition Tm (peak position) [1]	Compound	pre-transition of the lipid membrane (Cp-curves) [1]	onset of hydrolysis / lag time ([2]; 0.15 mM liposomes, 20 μL human tear fluid, 40° C.)	activity of human secretory PLA2 towards liposomes ([2]; liposomes formed by the lipid)
9.1 kcal/mol	0.58 kcal/mol	41.8 °C	34.1 °C	1-O-hexadecyl-2-hexadecanoyl-sn-glycero-3-phosphoglycerol [1-O-DPPG]	–	–	–
8.5 kcal/mol	0.84 kcal/mol	42.6 °C	32.0 °C	CCCCCCCCCCCCCCCCOC[C@H](COP(=O)([O-])OCC[N+](C)(C)C)OC(=O)CCCCCCCCCCCCCCC [1-O-DPPC, 1-O-hexadecyl-2-hexadecanoyl-sn-glycero-3-phosphocholine]	–	–	–
8.7 kcal/mol	1.2 kcal/mol	40.5 °C	31.9 °C	CCCCCCCCCCCCCCCC(=O)OC[C@H](COP(=O)([O-])OCC[N+](C)(C)C)OC(=O)CCCCCCCCCCCCCCC [DPPC, 1,2-dipalmitoyl-sn-glycero-3-phosphocholine]	–	–	–
9.8 kcal/mol	1.31 kcal/mol	40.6 °C	34.3 °C	CCCCCCCCCCCCCCCC(=O)OC[C@H](COP(=O)(O)OCC(O)CO)OC(=O)CCCCCCCCCCCCCCC (stereo partly drawn) [DPPG, 1,2-dipalmitoyl-sn-glycero-3-phosphoglycerol]	–	–	–

Compound	Main-transition ΔHm (melting enthalpy) [1]	Pre-transition ΔH (melting enthalpy) [1]	Main-transition Tm (peak position) [1]	Pre-transition Tm (peak position) [1]	pre-transition of the lipid membrane (Cp-curves) [1]	onset of hydrolysis / lag time ([2]; 0.15 mM liposomes, 20 μL human tear fluid, 40° C.)	activity of human secretory PLA2 towards liposomes ([2]; liposomes formed by the lipid)
CCCCCCCCCCCCCCCCOC[C@@H](COC(=O)CCCCCCCCCCCCCCC)OP(=O)([O-])OCC[N+](C)(C)C [1-O-DPPC′, (S)-1-O-hexadecyl-3-hexadecanoyl-glycero-2-phosphocholine]	12.8 kcal/mol	–	40.1 °C	–	abolished	–	–
(S)-1-O-hexadecyl-3-hexadecanoyl-glycero-2-phosphoglycerol [1-O-DPPG′]	11.3 kcal/mol	–	40.6 °C	–	abolished	immediate hydrolysis; also recorded: becomes active immediately after addition	high activity; also recorded: superior substrates
